The values below come from patent US12275985B2, “Redox labeled oligonucleotide probes and their use” (ABBOTT DIAGNOSTICS SCARBOROUGH, INC., priority 2016, dated 2025).

Series [1] can be described thus: DPV detection of cleaved redox labels in RPA reactions (peak potential and current). It is filed as physicochemical. Conditions: for E (DPV peak potential of cleaved label) / ΔE vs MB: label cleaved from Fpg probe in RPA, DPV. As to the method:
DNA and RNA amplification by RPA can be monitored in real-time or by end-product detection using the TwistAmp® basic kit with DPV detection. Briefly, a clinical sample (e.g., a clinical swab or wipe) is added to an RPA reagent mixture specific for a target nucleic acid sequence, the reagent mixture containing an Exo or Fpg oligonucleotide probe labeled with a redox-moiety, such as those described above, and maintained at 37° C.-42° C. for a time sufficient for amplification. Incubation in the presence of an ExoIII or Fpg exonuclease results in cleavage of probe/target DNA hybrids which allows for liberation of the redox-moiety (see FIG. 14). The liberated redox-moiety can be detected by, for example, amperometry, voltammetry (e.g., Differential Pulse voltammetry), and AC-impedance. Where the redox label has been cleaved from the probe/target complex (i.e., a sample positive for the target nucleic acid) a peak in current is observed at a voltage which corresponds to the oxidation potential of the label. Where the redox label has not been released from the oligonucleotide probe (i.e., a sample negative for the target nucleic acid), no peak is observed.
A “DPV output” of a given RPA reaction is determined by measuring the signal current generated by the redox-label present in the reaction in response to applied potentials. The DPV procedure requires the definition of several key parameters: interval period (related to scan rate), step potential, amplitude of the pulse (amp) and time of the pulse (pulse width). An example of these settings were: interval period 0.1 s, step potential 5 mV, pulse amplitude 75 mV and pulse width 30 ms. In addition to these parameters for the actual measurement, the DPV protocol also entails a series of 3 initial sequences of potential changes (“sweeps”) the output of which is not being directly quantified.
At FIG. 1, a method for electrochemical detection of an amplified nucleic acid target sequence according to an embodiment of the present invention is show. […] In the presence of the target, multiple copies of the DNA strand complementary to the labeled oligonucleotide probe are generated using a nucleic acid amplification method, such as, for example, PCR, RPA (shown), or NEAR. Following amplification, the DNA strand complementary to the labeled oligonucleotide probe anneal (i.e., hybridize) with the probe and form a double-stranded substrate. In the presence of a nuclease, the redox moiety (i.e., redox label) is enzymatically cleaved from (e.g., separated from) from the double-stranded substrate effecting release of the redox label. Once cleaved, the redox moiety (i.e., redox label) is able to diffuse and interact with the electrode and detection of the redox moiety is achieved by, for example, DPV, whereby a potential window (E) is swept in a stepwise fashion, and the Faradaic current (I) associated with reduction of the label is recorded. Diffusing redox labels that have been enzymatically released from oligonucleotide probes generate a larger current response, thus enabling electrochemical detection of target amplification.
For example, during initial studies on Alere HeartCheck electrodes, redox moieties with a reduction potential (versus a Ag/AgCl reference electrode) of between approximately […] were considered optimal for multiplexing (FIG. 2). In order to resolve two redox moieties which fall within this window, a difference (ΔE) of approximately ≥50 mV in their peak potential is predicted to be sufficient. Thus, in the case of the HeartCheck electrode, there is a theoretical maximum multiplexing capacity of 5 labels within this window. Note however that alternative (electrode-dependent) windows for detection may be determined.

The subject of series [2] is InfA[PA] and InfB[PA] DNA. The series is described as follows: Duplexed RPA detection with 1:1 mixture of MB- and PZ9-labelled probes on HeartCheck sensor. Conditions: duplexed detection at 15 min, 10^7 copies of each target, third order polynomial baseline correction. The arrangement: species or system Influenza A and Influenza B.
Series [3] in a line: Aqueous solubility of redox label. It is filed as physicochemical.

Regarding `C[N+](C)=c1ccc2nc3c(cc(NCCC(=O)O)c4ccccc43)oc-2c1.[Cl-]` [PO1, N-(5-(2-carboxyethylamino)-9H-benzo[a]phenoxazin-9-ylidene)-N-methylmethanaminium chloride], in series [1], the “E (DPV peak potential of cleaved label)” value is approximately −0.52 V and the “ΔE vs MB” value is on record as approximately −140 mV.

On to `CN(CCCC(=O)O)c1ccc2nc3ccc(N(C)c4ccccc4)cc3[s+]c2c1.[Cl-]` [PZ9], for which the “ΔE vs MB” value in series [1] is “~+60 mV”. For the same compound, the “Emax of calculated Gaussian curve” value in series [2] is −0.3046 V.

`CC/[N+](CCCS(=O)(=O)[O-])=c1/ccc2nc3ccc(N(C)CCC(=O)O)cc3oc-2c1` [PO2, N-(3-(N-methyl(2-carboxyethyl)amino)phenoxazin-7-ylidene)-N-ethyl(3-sulfonatopropyl)aminium chloride]: in series [1], the “E (DPV peak potential of cleaved label)” value is listed as approximately −0.44 V and the “ΔE vs MB” value was approximately −60 mV. The aqueous solubility entry in series [3] is on record as “good aqueous solubility”.

Compound `CN(C)c1ccc2nc3ccc(N(C)C)cc3[s+]c2c1.[Cl-]` [Methylene Blue, 3,7-bis(Dimethylamino)-phenothiazin-5-ium chloride] registered a reduction peak potential in series [1] (vs Ag/AgCl during DPV in an RPA context) of −320 mV. Moreover, the “Emax of calculated Gaussian curve” value in series [2] is −0.3731 V.
